Data published in US11370798B2 (Vertex Pharmaceuticals Incorporated, priority 2012, dated 2022).

Tested on: HCT116 colorectal cancer cells
Assay: Cisplatin sensitization assay (96 h cell viability MTS);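 further: Test-compound concentration that lowers the Cisplatin IC50 by a set fold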
Format: cell-based
Details: compound and Cisplatin added simultaneously, Cisplatin sensitization value
Protocol: Compounds can be screened for their ability to sensitize HCT116 colorectal cancer cells to Cisplatin using a 96 h cell viability (MTS) assay. […] Compounds and Cisplatin are then both added simultaneously to the cell media in 2-fold serial dilutions from a top final concentration of 10 μM as a full matrix of concentrations in a final cell volume of 200 μl, and the cells are then incubated at 37° C. in 5% CO2. After 96 h, 40 μl of MTS reagent (Promega G358a) is added to each well and the cells are incubated for 1 h at 37° C. in 5% CO2.
Compounds with a Cisplatin sensitization value of <0.02 μM are marked with “+++.” Compounds with a Cisplatin sensitization value>0.02 μM but <0.2 μM are marked with “++.” Compounds with a Cisplatin sensitization value>0.2 μM but <5 μM are marked with “+.”

CN1CCCCC1C(=O)N1CCN(c2c(F)cncc2NC(=O)c2c(N)nn3cc(F)cnc23)CC1 (stereo not drawn) [I-N-173, 2-amino-6-fluoro-N-(5-fluoro-4-(4-(1-methylpiperidine-2-carbonyl)piperazin-1-yl)pyridin-3-yl)pyrazolo[1,5-a]pyrimidine-3-carboxamide]
Cisplatin Sensitization Assay: +++ (Cisplatin sensitization value of <0.02 μM)

COC1CN(C(=O)C2CCN(c3c(F)cncc3NC(=O)c3c(N)nn4cc(F)cnc34)CC2)C1 [I-G-21, 2-amino-6-fluoro-N-(5-fluoro-4-(4-(3-methoxyazetidine-1-carbonyl)piperidin-1-yl)pyridin-3-yl)pyrazolo[1,5-a]pyrimidine-3-carboxamide]
Cisplatin Sensitization Assay: +++ (Cisplatin sensitization value of <0.02 μM)

CN1CCN(C(=O)C2CCN(c3c(F)cncc3NC(=O)c3c(N)nn4cc(F)cnc34)C2)CC1 (stereo not drawn) [I-N-191, 2-amino-6-fluoro-N-(5-fluoro-4-(3-(4-methylpiperazine-1-carbonyl)pyrrolidin-1-yl)pyridin-3-yl)pyrazolo[1,5-a]pyrimidine-3-carboxamide]
Cisplatin Sensitization Assay: + (Cisplatin sensitization value>0.2 μM but <5 μM)

Nc1nn2cc(F)cnc2c1C(=O)Nc1cncc(F)c1N1CCC(OCCN2CCCC2)CC1 [I-N-167, 2-amino-6-fluoro-N-(5-fluoro-4-(4-(2-(pyrrolidin-1-yl)ethoxy)piperidin-1-yl)pyridin-3-yl)pyrazolo[1,5-a]pyrimidine-3-carboxamide]
Cisplatin Sensitization Assay: +++ (Cisplatin sensitization value of <0.02 μM)

CN1CCC(S(=O)(=O)N2CCN(c3c(F)cncc3NC(=O)c3c(N)nn4cc(F)cnc34)CC2)CC1 [I-N-175, 2-amino-6-fluoro-N-(5-fluoro-4-(4-((1-methylpiperidin-4-yl)sulfonyl)piperazin-1-yl)pyridin-3-yl)pyrazolo[1,5-a]pyrimidine-3-carboxamide]
Cisplatin Sensitization Assay: +++ (Cisplatin sensitization value of <0.02 μM)

Nc1nn2cc(Cl)cnc2c1C(=O)Nc1cnccc1N1CCN(CC(F)(F)F)CC1 [I-N-67, 2-amino-6-chloro-N-(4-(4-(2,2,2-trifluoroethyl)piperazin-1-yl)pyridin-3-yl)pyrazolo[1,5-a]pyrimidine-3-carboxamide]
Cisplatin Sensitization Assay: +++ (Cisplatin sensitization value of <0.02 μM)

Nc1nn2cc(F)cnc2c1C(=O)Nc1cncc(F)c1N1CCC(C(=O)N2CCC(N3CCCCC3)C2)CC1 (stereo not drawn) [I-G-64, 2-amino-6-fluoro-N-(5-fluoro-4-(4-(3-(piperidin-1-yl)pyrrolidine-1-carbonyl)piperidin-1-yl)pyridin-3-yl)pyrazolo[1,5-a]pyrimidine-3-carboxamide]
Cisplatin Sensitization Assay: +++ (Cisplatin sensitization value of <0.02 μM)

CN1C[C@@H]2CCN(c3ccncc3NC(=O)c3c(N)nn4cc(F)cnc34)C[C@@H]2C1=O [I-N-224, 2-amino-6-fluoro-N-(4-((3aR,7aR)-2-methyl-3-oxohexahydro-1H-pyrrolo[3,4-c]pyridin-5(6H)-yl)pyridin-3-yl)pyrazolo[1,5-a]pyrimidine-3-carboxamide]
Cisplatin Sensitization Assay: + (Cisplatin sensitization value>0.2 μM but <5 μM)

Nc1nn2cc(F)cnc2c1C(=O)Nc1cnccc1N1CC(=O)N2CCCC2C1 (stereo not drawn) [I-N-222, 2-amino-6-fluoro-N-(4-(4-oxohexahydropyrrolo[1,2-a]pyrazin-2(1H)-yl)pyridin-3-yl)pyrazolo[1,5-a]pyrimidine-3-carboxamide]
Cisplatin Sensitization Assay: ++ (Cisplatin sensitization value>0.02 μM but <0.2 μM)

Nc1nn2cc(F)cnc2c1C(=O)Nc1cnccc1-c1cccnc1 [I-C-15, N-([3,4′-bipyridin]-3′-yl)-2-amino-6-fluoropyrazolo[1,5-a]pyrimidine-3-carboxamide]
Cisplatin Sensitization Assay: ++ (Cisplatin sensitization value>0.02 μM but <0.2 μM)

Nc1nn2cc(F)cnc2c1C(=O)Nc1cncc2c1CCNC2 [I-C-7, 2-amino-6-fluoro-N-(5,6,7,8-tetrahydro-2,7-naphthyridin-4-yl)pyrazolo[1,5-a]pyrimidine-3-carboxamide]
Cisplatin Sensitization Assay: ++ (Cisplatin sensitization value>0.02 μM but <0.2 μM)

Nc1nn2cc(Cl)cnc2c1C(=O)Nc1cnccc1O[C@H]1CCCNC1 [I-O-74, (S)-2-amino-6-chloro-N-(4-(piperidin-3-yloxy)pyridin-3-yl)pyrazolo[1,5-a]pyrimidine-3-carboxamide]
Cisplatin Sensitization Assay: ++ (Cisplatin sensitization value>0.02 μM but <0.2 μM)

COc1ccncc1NC(=O)c1c(N)nn2cc(CC#N)cnc12 [I-O-26, 2-amino-6-(cyanomethyl)-N-(4-methoxypyridin-3-yl)pyrazolo[1,5-a]pyrimidine-3-carboxamide]
Cisplatin Sensitization Assay: ++ (Cisplatin sensitization value>0.02 μM but <0.2 μM)

CN(C)[C@H]1CCN(c2ccncc2NC(=O)c2c(N)nn3cc(Cl)cnc23)C[C@@H]1O [I-N-35, 2-amino-6-chloro-N-(4-((3S,4S)-4-(dimethylamino)-3-hydroxypiperidin-1-yl)pyridin-3-yl)pyrazolo[1,5-a]pyrimidine-3-carboxamide]
Cisplatin Sensitization Assay: + (Cisplatin sensitization value>0.2 μM but <5 μM)

CN1CCC(OC2CCN(c3ccncc3NC(=O)c3c(N)nn4cc(F)cnc34)CC2)CC1 [I-N-154, 2-amino-6-fluoro-N-(4-(4-((1-methylpiperidin-4-yl)oxy)piperidin-1-yl)pyridin-3-yl)pyrazolo[1,5-a]pyrimidine-3-carboxamide]
Cisplatin Sensitization Assay: +++ (Cisplatin sensitization value of <0.02 μM)

N#CCc1cnc2c(C(=O)Nc3cnccc3OC3CNC3)c(N)nn2c1 [I-O-82, 2-amino-N-(4-(azetidin-3-yloxy)pyridin-3-yl)-6-(cyanomethyl)pyrazolo[1,5-a]pyrimidine-3-carboxamide]
Cisplatin Sensitization Assay: ++ (Cisplatin sensitization value>0.02 μM but <0.2 μM)

CN1CCN(C(=O)C2(C)CCN(c3c(F)cncc3NC(=O)c3c(N)nn4cc(F)cnc34)CC2)CC1 [I-G-54, 2-amino-6-fluoro-N-(5-fluoro-4-(4-methyl-4-(4-methylpiperazine-1-carbonyl)piperidin-1-yl)pyridin-3-yl)pyrazolo[1,5-a]pyrimidine-3-carboxamide]
Cisplatin Sensitization Assay: +++ (Cisplatin sensitization value of <0.02 μM)

Nc1nn2cc(F)cnc2c1C(=O)Nc1cnccc1-c1ccc(C(=O)N2CCN3CCC2CC3)cc1F [I-C-50, N-(4-(4-(1,4-diazabicyclo[3.2.2]nonane-4-carbonyl)-2-fluorophenyl)pyridin-3-yl)-2-amino-6-fluoropyrazolo[1,5-a]pyrimidine-3-carboxamide]
Cisplatin Sensitization Assay: +++ (Cisplatin sensitization value of <0.02 μM)

Nc1nn2cc(F)cnc2c1C(=O)Nc1cncc(F)c1N1CCS(=O)(=O)CC1 [I-N-250, 2-amino-N-(4-(1,1-dioxidothiomorpholino)-5-fluoropyridin-3-yl)-6-fluoropyrazolo[1,5-a]pyrimidine-3-carboxamide]
Cisplatin Sensitization Assay: ++ (Cisplatin sensitization value>0.02 μM but <0.2 μM)

Cc1nc(C)n(-c2ccncc2NC(=O)c2c(N)nn3cc(F)cnc23)n1 [I-N-218, 2-amino-N-(4-(3,5-dimethyl-1H-1,2,4-triazol-1-yl)pyridin-3-yl)-6-fluoropyrazolo[1,5-a]pyrimidine-3-carboxamide]
Cisplatin Sensitization Assay: + (Cisplatin sensitization value>0.2 μM but <5 μM)

Cc1cncn1-c1ccncc1NC(=O)c1c(N)nn2cc(F)cnc12 [I-N-283, 2-amino-6-fluoro-N-(4-(5-methyl-1H-imidazol-1-yl)pyridin-3-yl)pyrazolo[1,5-a]pyrimidine-3-carboxamide]
Cisplatin Sensitization Assay: ++ (Cisplatin sensitization value>0.02 μM but <0.2 μM)

CN(C)C1CCCN(c2ccncc2NC(=O)c2c(N)nn3cc(Cl)cnc23)C1 (stereo not drawn) [I-N-40, 2-amino-6-chloro-N-(4-(3-(dimethylamino)piperidin-1-yl)pyridin-3-yl)pyrazolo[1,5-a]pyrimidine-3-carboxamide]
Cisplatin Sensitization Assay: ++ (Cisplatin sensitization value>0.02 μM but <0.2 μM)

Nc1nn2cc(Cl)cnc2c1C(=O)Nc1cnccc1N1CCC(N2CC[C@@H](F)C2)CC1 [I-N-98, (R)-2-amino-6-chloro-N-(4-(4-(3-fluoropyrrolidin-1-yl)piperidin-1-yl)pyridin-3-yl)pyrazolo[1,5-a]pyrimidine-3-carboxamide]
Cisplatin Sensitization Assay: +++ (Cisplatin sensitization value of <0.02 μM)

Nc1nn2cc(F)cnc2c1C(=O)Nc1cnccc1C1CCN(C(=O)C23CCN(CC2)CC3)CC1 [I-C-18, 2-amino-6-fluoro-N-(4-(1-(quinuclidine-4-carbonyl)piperidin-4-yl)pyridin-3-yl)pyrazolo[1,5-a]pyrimidine-3-carboxamide]
Cisplatin Sensitization Assay: + (Cisplatin sensitization value>0.2 μM but <5 μM)

CN1CCN(c2c(F)cncc2NC(=O)c2c(N)nn3cc(Cl)cnc23)CC1 [I-N-14, 2-amino-6-chloro-N-(5-fluoro-4-(4-methylpiperazin-1-yl)pyridin-3-yl)pyrazolo[1,5-a]pyrimidine-3-carboxamide]
Cisplatin Sensitization Assay: +++ (Cisplatin sensitization value of <0.02 μM)

Nc1nn2cc(F)cnc2c1C(=O)Nc1cncc(F)c1N1CCC(N2CCCC2=O)CC1 [I-N-147, 2-amino-6-fluoro-N-(5-fluoro-4-(4-(2-oxopyrrolidin-1-yl)piperidin-1-yl)pyridin-3-yl)pyrazolo[1,5-a]pyrimidine-3-carboxamide]
Cisplatin Sensitization Assay: +++ (Cisplatin sensitization value of <0.02 μM)

Nc1nn2cc(F)cnc2c1C(=O)Nc1cnccc1N1CCN2CCC[C@H]2C1 [I-N-21, (S)-2-amino-6-fluoro-N-(4-(hexahydropyrrolo[1,2-a]pyrazin-2(1H)-yl)pyridin-3-yl)pyrazolo[1,5-a]pyrimidine-3-carboxamide]
Cisplatin Sensitization Assay: +++ (Cisplatin sensitization value of <0.02 μM)
